The source of these data is the supplement of paper PMC3493320.

Molecules are shown by their SMILES.

The experiment concerns NCI-H295R. The experiment can be described thus: IC50 (antiproliferative, ATP content). As to conditions: 48 h. The gist of the method: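 Compounds were pin-transferred at 8 final concentrations between 0.6 nM and 46 µM onto adrenocortical carcinoma cells (1500 per well, 1536-well plates) that had been cultured overnight in serum-free DMEM with ITS. Plates then stood 48 h at 37 °C, 5% CO2, and ATP was detected by CellTiter-Glo luminescence. IC50 was derived from logistic fits of normalised signal, and compounds giving no concentration response were noted as above the top dose.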
For `Cc1ccc(-c2ncc(Cl)cc2-c2ccc(S(C)(=O)=O)cc2)cn1`, the IC50 is more than 46 µM.

`NCCC(O)(P(=O)(O)O)P(=O)(O)O` gave an IC50 of more than 46 µM.

As for `CN(C)c1ccc(O)c2c1C[C@H]1C[C@H]3[C@H](N(C)C)C(O)=C(C(N)=O)C(=O)[C@@]3(O)C(O)=C1C2=O.Cl`, the half-inhibitory concentration (IC50) is more than 46 µM.

As to `CCn1cc(C(=O)O)c(=O)c2cnc(N3CCCC3)nc21`, the IC50 is more than 46 µM.

For `OCCOCCN1CCN(C2=Nc3ccccc3Sc3ccccc32)CC1`, the IC50 was more than 46 µM.

`CCCCCCCCOc1ccccc1C(=O)Nc1ccc(C(=O)OCC[N+](C)(CC)CC)cc1.[Br-]` came in with an IC50 of more than 46 µM.

Consider `CC(NNC(=O)c1ccccc1)c1ccccc1` (stereo not drawn), for which the IC50 is more than 46 µM.

Turning to `CN1[C@@H]2CC[C@H]1C[C@@H](OC(=O)c1c[nH]c3ccccc13)C2`, the IC50 is more than 46 µM.

The compound `COc1ccc(C(CN(C)C)C2(O)CCCCC2)cc1` (stereo not drawn) returned an IC50 of more than 46 µM.

`O=C(O)CP(=O)(O)O` registered an IC50 of more than 46 µM.

In the case of `NCCNCCNCCNCCN`, the IC50 was more than 46 µM.

As for `O=C(O)C(=O)O.c1ccc2cc(C3=NCCN3)ccc2c1`, the IC50 is more than 46 µM.

`O=C1c2ccccc2-c2n[nH]c3cccc1c23`: the IC50 is more than 46 µM.

As for `CCCNC(C)C(=O)Nc1c(C)csc1C(=O)OC.Cl` (stereo not drawn), the IC50 was more than 46 µM.

In the case of `Cc1ncc(C[n+]2csc(CCOP(=O)(O)O)c2C)c(N)n1.[Cl-]`, the IC50 was more than 46 µM.

Turning to `CC(C)(C)c1ccc2c(S(=O)(=O)[O-])c(C(C)(C)C)ccc2c1.[Na+]`, the IC50 is more than 46 µM.

`CCN(CC)C(C)C(=O)c1ccccc1.Cl` (stereo not drawn) returned an IC50 of more than 46 µM.

Take `NCCc1ccc(O)c(O)c1`: the IC50 was more than 46 µM.

`CC(CN1c2ccccc2Sc2cccnc21)N(C)C.Cl` (stereo not drawn): the half-inhibitory concentration (IC50) is more than 46 µM.

As to `CC(C)CCC[C@@H](C)[C@H]1CC[C@H]2[C@@H]3CC=C4C[C@@H](O)CC[C@]4(C)[C@H]3CC[C@]12C`, the IC50 is more than 46 µM.

With `CCN(Cc1ccncc1)C(=O)C(CO)c1ccccc1` (stereo not drawn), the IC50 is more than 46 µM.

In turn, `CCC(=O)OCC(=O)[C@@]1(OC(=O)CC)[C@H](C)C[C@H]2[C@H]3[C@H]([C@@H](O)C[C@@]21C)[C@@]1(C)C=CC(=O)C=C1C[C@H]3Cl` showed an IC50 of more than 46 µM.

As to `O=c1[nH]c(=O)n([C@H]2C[C@H](O)[C@@H](CO)O2)cc1C(F)(F)F`, the IC50 was more than 46 µM.

`Nc1ccn([C@@H]2O[C@H](CO)[C@@H](O)[C@@H]2O)c(=O)n1` had an IC50 of more than 46 µM.

For the compound `CCCCOc1ccc(OCCCN2CCOCC2)cc1.Cl`, the IC50 was more than 46 µM.

Turning to `c1cccc2N\C=C/c12`, the IC50 is more than 46 µM.

`C=CCN1CC[C@]23c4c5ccc(O)c4O[C@H]2C(=O)CC[C@@]3(O)[C@H]1C5` showed an IC50 of more than 46 µM.

The compound `Cl.N=C(N)n1cccn1` gave a half-inhibitory concentration (IC50) of more than 46 µM.

Compound `NC(CO)(CO)CO` registered an IC50 of more than 46 µM.

For `CC(C)(C#N)c1cc(Cn2cncn2)cc(C(C)(C)C#N)c1`, the IC50 was more than 46 µM.

Compound `C1CCN2C[C@@H]3C[C@@H](CN4CCCC[C@@H]34)[C@H]2C1` came in with an IC50 of more than 46 µM.

As for `OC(c1ccccc1)(c1ccccc1)C1CN2CCC1CC2` (stereo not drawn), the IC50 was more than 46 µM.

`CC(C)(C)NCC(O)c1cc(O)cc(O)c1.CC(C)(C)NCC(O)c1cc(O)cc(O)c1.O=S(=O)(O)O` (stereo not drawn) displayed an IC50 of more than 46 µM.

Compound `C[N+]1(C)[C@@H]2CC[C@H]1C[C@H](OC(=O)c1c[nH]c3ccccc13)C2.[I-]` displayed an IC50 of more than 46 µM.

`OC[C@H]1O[C@@H](O[C@H]2[C@H](O)[C@@H](O)[C@H](O)O[C@@H]2CO)[C@H](O)[C@@H](O)[C@@H]1O` came in with an IC50 of more than 46 µM.

As for `O=NN(CCCl)C(=O)NC1CCCCC1`, the IC50 was more than 46 µM.

For the compound `NC(=O)NNc1ccccc1`, the IC50 is more than 46 µM.

Compound `CO/N=C1\CN(c2nc3c(cc2F)c(=O)c(C(=O)O)cn3C2CC2)CC1CN.CS(=O)(=O)O` (stereo not drawn) showed an IC50 of more than 46 µM.

In the case of `NC(=O)NC(=O)Cc1ccccc1`, the IC50 was more than 46 µM.

`COc1cc2nc(N3CCN(C(=O)C4CCCO4)CC3)nc(N)c2cc1OC.Cl` (stereo not drawn): the IC50 is more than 46 µM.

As to `N=C(N)NS(=O)(=O)c1ccc(N)cc1`, the IC50 was more than 46 µM.

Compound `CN(C)C(=O)Oc1cc(OC(=O)N(C)C)cc(C(O)CNC(C)(C)C)c1.Cl` (stereo not drawn) returned an IC50 of more than 46 µM.

In turn, `CCOc1ccc2c3c1O[C@H]1[C@@H](O)C=C[C@H]4[C@@H](C2)N(C)CC[C@@]341` gave an IC50 of more than 46 µM.

Compound `[C@@]2\1(\C(=C/C(/C=C/1)=O)CC[C@@H]4[C@@H]2CC[C@@]3(OC(=O)CC[C@H]34)C)C` yielded an IC50 of more than 46 µM.

`N#C/C(=C1\SCC(c2ccccc2Cl)S1)n1ccnc1` (stereo not drawn): the IC50 is more than 46 µM.

The compound `CC(COc1ccccc1)N(CCCl)Cc1ccccc1` (stereo not drawn) yielded an IC50 of more than 46 µM.

`CC(C)NC(C)C` displayed an IC50 of more than 46 µM.

`CO/N=C(\C(=O)N[C@@H]1C(=O)N2C(C(=O)O)=C(CSc3nnnn3C)CS[C@H]12)c1csc(N)n1.CO/N=C(\C(=O)N[C@@H]1C(=O)N2C(C(=O)O)=C(CSc3nnnn3C)CS[C@H]12)c1csc(N)n1.Cl`: the IC50 was more than 46 µM.

`COc1cc2c(cc1OC)C1CC(=O)C(CC(C)C)CN1CC2` (stereo not drawn) yielded an IC50 of more than 46 µM.

`FC1(F)C(F)(F)C(F)(F)C2(F)C(F)(F)C(F)(F)C(F)(F)C(F)(F)C2(F)C1(F)F` (stereo not drawn) displayed an IC50 of more than 46 µM.

On to `CN(C)CC/C=C1C(C=CC=C3)=C3C=CC2=C\1C=CC=C2.Cl`, for which the IC50 was more than 46 µM.

In turn, `Cl.Nc1ccn([C@@H]2O[C@H](CO)[C@@H](O)C2(F)F)c(=O)n1` gave a half-inhibitory concentration (IC50) of more than 46 µM.

`S=C=S` gave an IC50 of more than 46 µM.

`COc1cc(OC)cc(OC)c1` gave an IC50 of more than 46 µM.

Compound `CC(C)Cn1cnc2c1c(=O)n(C)c(=O)n2C` returned an IC50 of more than 46 µM.

In the case of `N#CCCN.N#CCCN.O=C(O)/C=C/C(=O)O`, the IC50 was more than 46 µM.

The compound `Cc1c(NC(=O)c2cccnc2)c(=O)n(-c2ccccc2)n1C` had an IC50 of more than 46 µM.

Turning to `CS(=O)(=O)O.N[C@@H]1[C@H]2CN(c3nc4c(cc3F)c(=O)c(C(=O)O)cn4-c3ccc(F)cc3F)C[C@@H]12`, the IC50 was more than 46 µM.

For the compound `O=[C@](OC)[C@@H]3[C@@]2([H])C[C@@](N4C[C@@]([H])2CC[C@@H]3O)([H])C1=C(CC4)C(C=CC=C5)=C5N1`, the IC50 is more than 46 µM.

On to `Cl.Cl.NC(=O)C1(N2CCCCC2)CCN(CCCC(=O)c2ccc(F)cc2)CC1`, for which the IC50 is more than 46 µM.

Turning to `CC1CCc2c(N3CCC(O)CC3)c(F)cc3c(=O)c(C(=O)O)cn1c23` (stereo not drawn), the IC50 was more than 46 µM.

Compound `Cn1c(=O)c2c(ncn2CC2OCCO2)n(C)c1=O` displayed an IC50 of more than 46 µM.

Compound `Cl.FC(F)(F)c1cccc(C2=CCN(CCc3ccc4ccccc4c3)CC2)c1` gave an IC50 of more than 46 µM.

Take `NNCCc1ccccc1.O=S(=O)(O)O`: the IC50 is more than 46 µM.

With `Cl.N=C(N)NC(=O)Cc1c(Cl)cccc1Cl`, the IC50 was more than 46 µM.

`O=[C@@](OC)[C@H](C2=CC=CC=C2Cl)N1CC(C=CS3)=C3CC1.O=S(O)(O)=O`: the IC50 is more than 46 µM.

In the case of `CC(C)NNC(=O)c1ccncc1.O=S(=O)(O)O`, the half-inhibitory concentration (IC50) was more than 46 µM.

As for `Cl.O=C(CCCN1CCC(O)(c2cccc(C(F)(F)F)c2)CC1)c1ccc(F)cc1`, the IC50 was more than 46 µM.

As to `CN(C)c1nc(N(C)C)nc(N(C)C)n1`, the IC50 was more than 46 µM.

For the compound `Cc1cccc(C(C)c2c[nH]cn2)c1C` (stereo not drawn), the IC50 was more than 46 µM.

The compound `O=C(CCl)c1ccc(Oc2ccc(C(=O)CCl)cc2)cc1` had an IC50 of more than 46 µM.

As to `O=C(O)/C=C\C(=O)O.O=C(O)/C=C\C(=O)O.c1cc(CN2CCCCC2)cc(OCCCNc2nc3ccccc3s2)c1`, the IC50 was more than 46 µM.

For `CC1(C)O[C@@H]2C[C@H]3[C@@H]4CCC5=CC(=O)C=C[C@]5(C)[C@H]4[C@@H](O)C[C@]3(C)[C@]2(C(=O)CO)O1`, the IC50 was more than 46 µM.

For the compound `COP(=S)(OC)Oc1ccc(S(=O)(=O)N(C)C)cc1`, the IC50 is more than 46 µM.

`CS(=O)(=O)c1ccc(C2=C(c3ccccc3)C(=O)OC2)cc1` showed an IC50 of more than 46 µM.

The compound `CO[C@H]1C[C@H](O[C@H]2[C@H](C)[C@@H](O[C@@H]3O[C@H](C)C[C@H](N(C)C)[C@H]3O)[C@@H](C)C[C@]3(CO3)C(=O)[C@H](C)[C@@H](O)[C@@H](C)[C@@H](C)OC(=O)[C@@H]2C)O[C@@H](C)[C@@H]1O.O=P(O)(O)O` came in with an IC50 of more than 46 µM.

`O=C(O)c1ccc(OCCCOc2ccc(C(=O)O)cc2)cc1` showed an IC50 of more than 46 µM.

Consider `CC=Cc1ccc(OC)cc1`, for which the IC50 was more than 46 µM.

`CCOC(=O)C1=C(COCCN)NC(C)=C(C(=O)OC)C1c1ccccc1Cl.O=S(=O)(O)c1ccccc1` (stereo not drawn) yielded an IC50 of more than 46 µM.

Compound `COc1ccc2c(c1)c1c3n2CCN(C)C3=NCC1` displayed a 50% inhibitory concentration (IC50) of more than 46 µM.

`O=C(OCc1ccccc1)c1cccnc1`: the IC50 was more than 46 µM.

For `Br.CC(Cc1ccc(O)cc1)NCC(O)c1cc(O)cc(O)c1` (stereo not drawn), the IC50 was more than 46 µM.

In turn, `OC[C@H]1OC([S][Au])[C@H](O)[C@@H](O)[C@@H]1O` (stereo partly drawn) showed an IC50 of more than 46 µM.

For `Cc1ncsc1CCCl`, the IC50 is more than 46 µM.

Regarding `CN1C(=S)CN=C(c2ccccc2)c2cc(Cl)ccc21`, the IC50 is more than 46 µM.

As for `CS(=O)(=O)O.N=C(N)Nc1ccc(C(=O)Oc2ccc3cc(C(=N)N)ccc3c2)cc1`, the IC50 was more than 46 µM.

Regarding `Nc1ccc(S(=O)(=O)NCc2ccccc2)cc1`, the IC50 is more than 46 µM.

On to `CC[C@H]1OC(=O)[C@H](C)C(=O)[C@H](C)[C@@H](O[C@@H]2O[C@H](C)C[C@H](N(C)C)[C@H]2O)[C@](C)(OC)C[C@@H](C)C(=O)[C@H](C)[C@H]2N(CCCCn3cnc(-c4cccnc4)c3)C(=O)O[C@]12C`, for which the IC50 is more than 46 µM.
